{
  "source": "ChEMBL document CHEMBL1145869",
  "about": "“Enantiomerically pure tetrahydroquinoline derivatives as in vivo potent antagonists of the glycine binding site associated to the NMDA receptor” (Bioorg Med Chem Lett, 2003)",
  "key": {"Glutamate NMDA receptor": {"biological_target": "Glutamate NMDA receptor", "assay": "In vitro ability to inhibit the binding of [3H]glycine to glycine binding site of N-methyl-D-aspartate glutamate receptor in rat synaptic membranes", "type": "cell membranes, Membrane"}, "Mus musculus": {"test_system": "Mus musculus", "assay": "In vivo neuroprotective activity in the NMDA-induced convulsions in mice after iv administration", "type": "functional"}, "Rattus norvegicus [1]": {"test_system": "Rattus norvegicus", "assay": "In vivo neuroprotective activity in the MCAo model of rats 6 hr after occlusion(post-ischemia) by iv administration at a dose of 0.3 mg/kg", "type": "functional"}, "Rattus norvegicus [2]": {"test_system": "Rattus norvegicus", "assay": "In vivo neuroprotective activity in the MCAo model of rats 6 hr after occlusion(post-ischemia) by iv administration at a dose of 1 mg/kg", "type": "functional"}, "Rattus norvegicus [3]": {"species": "Rattus norvegicus", "assay": "Area under curve in rat plasma", "type": "ADME, organism-based", "details": "in vivo"}, "Rattus norvegicus [4]": {"test_system": "Rattus norvegicus", "assay": "In vivo neuroprotective activity as reduction of size of gross brain damage in the MCAo model of rats 6 hr after occlusion(post-ischemia) by iv administration at a dose of 1 mg/kg", "type": "functional"}, "Rattus norvegicus [5]": {"test_system": "Rattus norvegicus", "assay": "In vivo neuroprotective activity as reduction of size of gross brain damage in the MCAo model of rats 6 hr after occlusion(post-ischemia) by iv administration at a dose of 0.3 mg/kg", "type": "functional"}, "Rattus norvegicus [6]": {"test_system": "Rattus norvegicus", "assay": "In vivo neuroprotective activity in the MCAo model of rats 5 min prior to occlusion(pre-ischemia) by iv administration at a dose of 10 mg/kg", "type": "functional"}, "Rattus norvegicus [7]": {"test_system": "Rattus norvegicus", "assay": "In vivo neuroprotective activity as reduction of size of gross brain damage in the MCAo model of rats 5 min prior to occlusion(pre-ischemia) by iv administration at a dose of 0.01 mg/kg", "type": "functional"}, "Rattus norvegicus [8]": {"test_system": "Rattus norvegicus", "assay": "In vivo neuroprotective activity in the MCAo model of rats 5 min prior to occlusion(pre-ischemia) by iv administration at a dose of 1 mg/kg", "type": "functional"}, "Rattus norvegicus [9]": {"test_system": "Rattus norvegicus", "assay": "In vivo neuroprotective activity in the MCAo model of rats 5 min prior to occlusion(pre-ischemia) by iv administration at a dose of 0.1 mg/kg", "type": "functional"}, "Rattus norvegicus [10]": {"test_system": "Rattus norvegicus", "assay": "In vivo neuroprotective activity as reduction of size of gross brain damage in the MCAo model of rats 5 min prior to occlusion(pre-ischemia) by iv administration at a dose of 0.1 mg/kg", "type": "functional"}, "Rattus norvegicus [11]": {"test_system": "Rattus norvegicus", "assay": "In vivo neuroprotective activity in the MCAo model of rats 5 min prior to occlusion(pre-ischemia) by iv administration at a dose of 0.01 mg/kg", "type": "functional"}, "Rattus norvegicus [12]": {"test_system": "Rattus norvegicus", "assay": "In vivo neuroprotective activity as reduction of size of gross brain damage in the MCAo model of rats 5 min prior to occlusion(pre-ischemia) by iv administration at a dose of 10 mg/kg", "type": "functional"}, "Rattus norvegicus [13]": {"test_system": "Rattus norvegicus", "assay": "In vivo neuroprotective activity as reduction of size of gross brain damage in the MCAo model of rats 5 min prior to occlusion(pre-ischemia) by iv administration at a dose of 1 mg/kg", "type": "functional"}},
  "data": [
    {"smiles": "CC(=O)NCc1ccc(NC(=O)/C=C2\\CC(C(=O)O)Nc3cc(Cl)cc(Cl)c32)cc1", "note": "(stereo not drawn)", "values": [
      {"measurement": "Log Ki", "setting": "Glutamate NMDA receptor", "value": -8.32}
    ]},
    {"smiles": "CC(C)C(=O)NCc1ccc(NC(=O)/C=C2\\CC(C(=O)O)Nc3cc(Cl)cc(Cl)c32)cc1", "note": "(stereo not drawn)", "values": [
      {"measurement": "Log Ki", "setting": "Glutamate NMDA receptor", "value": -7.78}
    ]},
    {"smiles": "CS(=O)(=O)Nc1ccc(NC(=O)/C=C2\\CC(C(=O)O)Nc3cc(Cl)cc(Cl)c32)cc1", "note": "(stereo not drawn)", "values": [
      {"measurement": "Log Ki", "setting": "Glutamate NMDA receptor", "value": -8.18}
    ]},
    {"smiles": "NC(=O)/C=C/c1ccc(NC(=O)/C=C2\\CC(C(=O)O)Nc3cc(Cl)cc(Cl)c32)cc1", "note": "(stereo not drawn)", "values": [
      {"measurement": "Log Ki", "setting": "Glutamate NMDA receptor", "value": -8.15}
    ]},
    {"smiles": "O=C(/C=C1\\CC(C(=O)O)Nc2cc(Cl)cc(Cl)c21)Nc1ccccc1", "note": "(stereo not drawn)", "values": [
      {"measurement": "Log Ki", "setting": "Glutamate NMDA receptor", "value": -8.18}
    ]},
    {"smiles": "Nc1ccc(NC(=O)/C=C2\\CC(C(=O)O)Nc3cc(Cl)cc(Cl)c32)cc1", "note": "(stereo not drawn)", "values": [
      {"measurement": "Log Ki", "setting": "Glutamate NMDA receptor", "value": -7.76}
    ]},
    {"smiles": "NS(=O)(=O)Nc1ccc(NC(=O)/C=C2\\CC(C(=O)O)Nc3cc(Cl)cc(Cl)c32)cc1", "note": "(stereo not drawn)", "values": [
      {"measurement": "Log Ki", "setting": "Glutamate NMDA receptor", "value": -8.17}
    ]},
    {"smiles": "N#CCc1ccc(NC(=O)/C=C2\\CC(C(=O)O)Nc3cc(Cl)cc(Cl)c32)cc1", "note": "(stereo not drawn)", "values": [
      {"measurement": "Log Ki", "setting": "Glutamate NMDA receptor", "value": -8.15}
    ]},
    {"smiles": "NC(=O)NCc1ccc(NC(=O)/C=C2\\CC(C(=O)O)Nc3cc(Cl)cc(Cl)c32)cc1", "note": "(stereo not drawn)", "values": [
      {"measurement": "Log Ki", "setting": "Glutamate NMDA receptor", "value": -8.38}
    ]},
    {"smiles": "N#C/C=C/c1ccc(NC(=O)/C=C2\\CC(C(=O)O)Nc3cc(Cl)cc(Cl)c32)cc1", "note": "(stereo not drawn)", "values": [
      {"measurement": "Log Ki", "setting": "Glutamate NMDA receptor", "value": -7.73}
    ]},
    {"smiles": "NC(=O)Cc1ccc(NC(=O)/C=C2\\CC(C(=O)O)Nc3cc(Cl)cc(Cl)c32)cc1", "note": "(stereo not drawn)", "values": [
      {"measurement": "Log Ki", "setting": "Glutamate NMDA receptor", "value": -8.18}
    ]},
    {"smiles": "O=C(O)Cc1ccc(NC(=O)/C=C2\\CC(C(=O)O)Nc3cc(Cl)cc(Cl)c32)cc1", "note": "(stereo not drawn)", "values": [
      {"measurement": "Log Ki", "setting": "Glutamate NMDA receptor", "value": -7.72}
    ]},
    {"smiles": "COCC(=O)Nc1ccc(NC(=O)/C=C2\\CC(C(=O)O)Nc3cc(Cl)cc(Cl)c32)cc1", "note": "(stereo not drawn)", "values": [
      {"measurement": "Log Ki", "setting": "Glutamate NMDA receptor", "value": -8.18}
    ]},
    {"smiles": "CC(=O)Nc1ccc(NC(=O)/C=C2\\CC(C(=O)O)Nc3cc(Cl)cc(Cl)c32)cc1", "note": "(single isomer, unassigned; (+))", "values": [
      {"measurement": "ED50", "setting": "Mus musculus", "value": 0.31, "unit": "mg/kg"},
      {"measurement": "Infarct volume", "setting": "Rattus norvegicus [1]", "value": 55.6, "unit": "mm**3"},
      {"measurement": "Log Ki", "setting": "Glutamate NMDA receptor", "value": -8.79},
      {"measurement": "Infarct volume", "setting": "Rattus norvegicus [2]", "value": 44.4, "unit": "mm**3"},
      {"measurement": "AUC", "setting": "Rattus norvegicus [3]", "value": 3440, "unit": "ng·h/mL"},
      {"measurement": "Reduction", "setting": "Rattus norvegicus [4]", "value": 41.2, "unit": "%"},
      {"measurement": "Reduction", "setting": "Rattus norvegicus [5]", "value": 26.3, "unit": "%"}
    ]},
    {"smiles": "CC(=O)Nc1ccc(NC(=O)/C=C2\\CC(C(=O)O)Nc3cc(Cl)cc(Cl)c32)cc1", "note": "(single isomer, unassigned; (-))", "values": [
      {"measurement": "ED50", "setting": "Mus musculus", "value": 1.52, "unit": "mg/kg"},
      {"measurement": "Infarct volume", "setting": "Rattus norvegicus [1]", "value": 58.7, "unit": "mm**3"},
      {"measurement": "Log Ki", "setting": "Glutamate NMDA receptor", "value": -7.3},
      {"measurement": "Infarct volume", "setting": "Rattus norvegicus [2]", "value": 42.9, "unit": "mm**3"},
      {"measurement": "AUC", "setting": "Rattus norvegicus [3]", "value": 19800, "unit": "ng·h/mL"},
      {"measurement": "Reduction", "setting": "Rattus norvegicus [4]", "value": 43.2, "unit": "%"},
      {"measurement": "Reduction", "setting": "Rattus norvegicus [5]", "value": 22.2, "unit": "%"}
    ]},
    {"smiles": "CC(=O)Nc1ccc(NC(=O)/C=C2\\CC(C(=O)O)Nc3cc(Cl)cc(Cl)c32)cc1", "note": "(stereo in doubt; 3c)", "values": [
      {"measurement": "Infarct volume", "setting": "Rattus norvegicus [6]", "value": 39.7, "unit": "mm3"},
      {"measurement": "Reduction", "setting": "Rattus norvegicus [7]", "value": 12.7, "unit": "%"},
      {"measurement": "ED50", "setting": "Mus musculus", "value": 0.2, "unit": "mg/kg"},
      {"measurement": "Infarct volume", "setting": "Rattus norvegicus [8]", "value": 41.8, "unit": "mm3"},
      {"measurement": "Infarct volume", "setting": "Rattus norvegicus [9]", "value": 47.8, "unit": "mm3"},
      {"measurement": "Infarct volume", "setting": "Rattus norvegicus [1]", "value": 36.6, "unit": "mm**3"},
      {"measurement": "Reduction", "setting": "Rattus norvegicus [10]", "value": 35.1, "unit": "%"},
      {"measurement": "Log Ki", "setting": "Glutamate NMDA receptor", "value": -8.52},
      {"measurement": "Infarct volume", "setting": "Rattus norvegicus [2]", "value": 29.9, "unit": "mm**3"},
      {"measurement": "Infarct volume", "setting": "Rattus norvegicus [11]", "value": 64.3, "unit": "mm3"},
      {"measurement": "AUC", "setting": "Rattus norvegicus [3]", "value": 11500, "unit": "ng·h/mL"},
      {"measurement": "Reduction", "setting": "Rattus norvegicus [12]", "value": 46.1, "unit": "%"},
      {"measurement": "Reduction", "setting": "Rattus norvegicus [4]", "value": 59.4, "unit": "%"},
      {"measurement": "Reduction", "setting": "Rattus norvegicus [13]", "value": 43.3, "unit": "%"},
      {"measurement": "Reduction", "setting": "Rattus norvegicus [5]", "value": 50.3, "unit": "%"}
    ]},
    {"smiles": "O=C(/C=C/c1c(C(=O)O)[nH]c2cc(Cl)cc(Cl)c12)Nc1ccccc1", "note": "[GAVESTINEL]", "values": [
      {"measurement": "Log Ki", "setting": "Glutamate NMDA receptor", "value": -8.52}
    ]}
  ]
}
